What all share (assay type): cell-based
Assay [1] deals with Corynespora cassiicola. Put plainly: Corynespora cassiicola growth inhibition in liquid culture (microtiter plate, photometric). Particulars: Corynespora cassiicola, read-out: Observed Activity (%). From the text: A synergistic effect exists whenever the action of an active ingredient combination is greater than the sum of the actions of the individual components. The action to be expected E for a given active ingredient combination obeys the so-called COLBY formula and can be calculated as follows (COLBY, S. R. “Calculating synergistic and antagonistic responses of herbicide combination”. Weeds, Vol. 15, pages 20-22; 1967): • ppm=milligrams of active ingredient (=a.i.) per liter of spray mixture • X=% action by active ingredient A) using p ppm of active ingredient • Y=% action by active ingredient B) using q ppm of active ingredient. According to COLBY, the expected (additive) action of active ingredients A)+B) using p+q ppm of active ingredient is: If the action actually observed (O) is greater than the expected action (E), then the action of the combination is super-additive, i.e. there is a synergistic effect. In mathematical terms, synergism corresponds to a positive value for the difference of (O-E). In the case of purely complementary addition of activities (expected activity), said difference (O-E) is zero. A negative value of said difference (O-E) signals a loss of activity compared to the expected activity. Corynespora cassiicola (Target Spot of Soybean, Target Leaf Spot of Tomato): Conidia of the fungus from cryogenic storage were directly mixed into nutrient broth (PDB potato dextrose broth). A DMSO solution of the test compounds was placed into a microtiter plate (96-well format) and the nutrient broth containing the fungal spores was added to it. The test plates were incubated at 24° C. and the inhibition of growth was determined photometrically after 3-4 days at 620 nm. Rates and results are set out in the following tables: […]

Assay [2] relates to Septoria tritici. Put plainly: Septoria tritici growth inhibition in liquid culture (microtiter plate, photometric). Particulars: Zymoseptoria tritici, Pyrisoxazole 0 ppm, read-out: Observed Activity (%). The source says:
A synergistic effect exists whenever the action of an active ingredient combination is greater than the sum of the actions of the individual components. The action to be expected E for a given active ingredient combination obeys the so-called COLBY formula and can be calculated as follows (COLBY, S. R. “Calculating synergistic and antagonistic responses of herbicide combination”. Weeds, Vol. 15, pages 20-22; 1967): • ppm=milligrams of active ingredient (=a.i.) per liter of spray mixture • X=% action by active ingredient A) using p ppm of active ingredient • Y=% action by active ingredient B) using q ppm of active ingredient. According to COLBY, the expected (additive) action of active ingredients A)+B) using p+q ppm of active ingredient is: If the action actually observed (O) is greater than the expected action (E), then the action of the combination is super-additive, i.e. there is a synergistic effect. In mathematical terms, synergism corresponds to a positive value for the difference of (O-E). In the case of purely complementary addition of activities (expected activity), said difference (O-E) is zero. A negative value of said difference (O-E) signals a loss of activity compared to the expected activity. Septoria tritici (Leaf Blotch): Conidia of the fungus from cryogenic storage were directly mixed into nutrient broth (PDB potato dextrose broth). A DMSO solution of the test compounds was placed into a microtiter plate (96-well format) and the nutrient broth containing the fungal spores was added to it. The test plates were incubated at 24° C. and the inhibition of growth was determined photometrically after 72 hrs.

For assay [3], the system named is Mycosphaerella arachidis Syn. Cercospora arachidicola. Put plainly: Mycosphaerella arachidis growth inhibition in liquid culture (microtiter plate, photometric). Conditions: Mycosphaerella arachidis; A-1.3 0.03 ppm; Pyriofenone 0 ppm; read-out: Observed Activity (%). From the text: A synergistic effect exists whenever the action of an active ingredient combination is greater than the sum of the actions of the individual components. The action to be expected E for a given active ingredient combination obeys the so-called COLBY formula and can be calculated as follows (COLBY, S. R. “Calculating synergistic and antagonistic responses of herbicide combination”. Weeds, Vol. 15, pages 20-22; 1967): • ppm=milligrams of active ingredient (=a.i.) per liter of spray mixture • X=% action by active ingredient A) using p ppm of active ingredient • Y=% action by active ingredient B) using q ppm of active ingredient. According to COLBY, the expected (additive) action of active ingredients A)+B) using p+q ppm of active ingredient is: If the action actually observed (O) is greater than the expected action (E), then the action of the combination is super-additive, i.e. there is a synergistic effect. In mathematical terms, synergism corresponds to a positive value for the difference of (O-E). In the case of purely complementary addition of activities (expected activity), said difference (O-E) is zero. A negative value of said difference (O-E) signals a loss of activity compared to the expected activity. Mycosphaerella arachidis Syn. Cercospora arachidicola (Brown Leaf Spot of Peanut): Conidia of the fungus from cryogenic storage were directly mixed into nutrient broth (PDB potato dextrose broth). A DMSO solution of the test compounds was placed into a microtiter plate (96-well format) and the nutrient broth containing the fungal spores was added to it. The test plates were incubated at 24° C. and the inhibition of growth was determined photometrically after 5-6 days at 620 nm.

Assay [4] has as its system Septoria glycines. Put plainly: Septoria glycines growth inhibition in liquid culture (microtiter plate, visual). Particulars: Septoria glycines, Cyclobutrifluram 0 ppm, read-out: Observed Activity (%). The source says: A synergistic effect exists whenever the action of an active ingredient combination is greater than the sum of the actions of the individual components. The action to be expected E for a given active ingredient combination obeys the so-called COLBY formula and can be calculated as follows (COLBY, S. R. “Calculating synergistic and antagonistic responses of herbicide combination”. Weeds, Vol. 15, pages 20-22; 1967): • ppm=milligrams of active ingredient (=a.i.) per liter of spray mixture • X=% action by active ingredient A) using p ppm of active ingredient • Y=% action by active ingredient B) using q ppm of active ingredient. According to COLBY, the expected (additive) action of active ingredients A)+B) using p+q ppm of active ingredient is: If the action actually observed (O) is greater than the expected action (E), then the action of the combination is super-additive, i.e. there is a synergistic effect. In mathematical terms, synergism corresponds to a positive value for the difference of (O-E). In the case of purely complementary addition of activities (expected activity), said difference (O-E) is zero. A negative value of said difference (O-E) signals a loss of activity compared to the expected activity. Septoria glycines (Brown Spot): Conidia of the fungus from cryogenic storage were directly mixed into nutrient broth ([…] potato dextrose broth). A DMSO solution of the test compounds was placed into a microtiter plate (96-well format) and the nutrient broth containing the fungal spores was added to it. The test plates were incubated at 24° C. and the inhibition of growth was determined visually after 72 hrs.

As to `COC(=O)C(O)(Cn1cncn1)c1ccc(Oc2ccc(Cl)cc2)cc1C(F)(F)F` (stereo not shown) [Compound A-1.3, Methyl 2-[4-(4-chlorophenoxy)-2-(trifluoromethyl)phenyl]-2-hydroxy-3-(1,2,4-triazol-1-yl)propanoate], the inhibition at 0.03 ppm in assay [1] (A-1.3 0.03 ppm, Cyclobutrifluram 0 ppm) stood at 0%; in assay [2] (Table 11: A-1.3 0.03 ppm) it was 0%; in assay [3], 50%; in assay [4] (Table 13: A-1.3 0.03 ppm) it was 0%. Moreover, the inhibition at 0.2 ppm in assay [1] (A-1.3 0.2 ppm, Pyrisoxazole 0 ppm) was determined as 20%. In addition, the inhibition at 0.06 ppm came to 70% in assay [2] (Table 12: A-1.3 0.06 ppm) and 20% in assay [4] (Table 14: A-1.3 0.06 ppm).
